Some results are limits rather than exact numbers.

The target in the first assay is M. tuberculosis 3β-hydroxysteroid dehydrogenase (Mycobacterium tuberculosis, UniProt P9WQP7). Nature of the assay: 3β-hydroxysteroid dehydrogenase in vitro inhibitory activity assay.
Chain of M. tuberculosis 3β-hydroxysteroid dehydrogenase (P9WQP7 whole entry, looked up): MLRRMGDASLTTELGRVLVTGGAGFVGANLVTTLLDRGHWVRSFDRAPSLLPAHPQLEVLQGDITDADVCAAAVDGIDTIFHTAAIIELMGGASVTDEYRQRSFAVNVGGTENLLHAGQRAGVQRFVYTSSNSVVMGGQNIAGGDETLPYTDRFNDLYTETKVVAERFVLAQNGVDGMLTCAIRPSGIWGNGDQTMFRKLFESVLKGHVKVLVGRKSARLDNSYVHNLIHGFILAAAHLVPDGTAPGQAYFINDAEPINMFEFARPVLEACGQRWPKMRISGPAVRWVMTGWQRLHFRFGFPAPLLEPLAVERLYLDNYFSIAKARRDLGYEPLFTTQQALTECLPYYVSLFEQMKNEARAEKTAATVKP
Settings: not given
The format is biochemical.
Usually IC50 stands for the midpoint of a concentration-inhibition curve. Compound `CC(C)(C)c1ccc(C(C)(C)C)c(NC(=O)[C@H]2CCC3C4CNC5=CC(=O)CC[C@]5(C)C4CC[C@@]32C)c1` (stereo partly shown) had an IC50 of 1 to 50 µM.

`C[C@]12CCC(=O)C=C1NCC1C2CC[C@@]2(C)C1CC[C@@H]2C(=O)Nc1ccc(N2CCOCC2)cc1` (stereo partly shown) displayed an IC50 of more than 50 µM.

In the case of `CC(C)CCCC(C)[C@H]1CCC2C3CNC4=CC(=O)CC[C@]4(C)C3CC[C@@]21C` (stereo partly shown), the IC50 was less than 1 µM.

As for `CC(C)(C)c1ccc(C(F)(F)F)cc1NC(=O)[C@H]1CCC2C3CNC4=CC(=O)CC[C@]4(C)C3CC[C@@]21C` (stereo partly shown), the IC50 fell in the range of 1 to 50 µM.

Staying with this assay, now noted: purified enzyme, 150 μM dehydroepiandrosterone, 3.5 mM NAD+, pH 8.5, NADH at 340 nm; read-out: IC50 M. tuberculosis 3β-hydroxysteroid dehydrogenase.
Take `C[C@]12CCC(=O)C=C1NCC1C2CC[C@@]2(C)C1CC[C@@H]2C(=O)O` (stereo partly shown): the IC50 is more than 50 µM.

Turning to `C[C@]12CCC(=O)C=C1NCC1C2CC[C@@]2(C)C1CC[C@@H]2C(=O)Nc1ccccc1C(=O)c1ccccc1` (stereo partly shown), the IC50 lay in the range of 1 to 50 µM.

Turning to `CC(C)CCCC(C)[C@H]1CCC2C3C(CC[C@@]21C)[C@@]1(C)CCC(=O)C=C1N[C@H]3C` (stereo partly shown), the IC50 fell in the range of 1 to 50 µM.

The values above are taken from US8481530B2, “3β-hydroxysteroid dehydrogenase inhibitors” (The Research Foundation of State University of New York, priority 2007, dated 2013).
